Holding throughout (format): cell-based
The test system of assay [1] is Staphylococcus aureus MSQS (methicillin sensitive and quinolone sensitive). Kind of assay: MIC, agar-dilution, Staphylococcus aureus MSQS. Particulars: inoculum 10^4 CFU/spot, 37° C., 24 hours. The method, then: (§1) The following results were obtained on a standard in-vitro test system. The activity is described in terms of the minimum inhibitory concentration (MIC) determined by the agar-dilution technique with an inoculum size of 10^4 CFU/spot. Typically, compounds are active in the range 0.01 to 256 μg/ml.
(§2) Staphylococci were tested on agar, using an inoculum of 10^4 CFU/spot and an incubation temperature of 37° C. for 24 hours—standard test conditions for the expression of methicillin resistance.

The test system of assay [2] is Staphylococcus aureus MRQR (methicillin resistant and quinolone resistant). Kind of assay: MIC, agar-dilution, Staphylococcus aureus MRQR. The conditions noted are these: inoculum 10^4 CFU/spot, 37° C., 24 hours. How it is done: as §1, §2
Another assay deals with Streptococcus pneumoniae. The experiment in a line: MIC, agar with 5% horse blood, Streptococcus pneumoniae. The conditions noted are these: agar with 5% defibrinated horse blood, 10^4 CFU/spot, 37° C., 5% carbon dioxide, 48 hours. How it is done:
as §1
(§3) Streptococci and enterococci were tested on agar supplemented with 5% defibrinated horse blood, an inoculum of 10^4 CFU/spot and an incubation temperature of 37° C. in an atmosphere of 5% carbon dioxide for 48 hours—blood is required for the growth of some of the test organisms. Fastidious Gram negative organisms were tested in Mueller-Hinton broth, supplemented with hemin and NAD, grown aerobically for 24 hours at 37° C., and with an innoculum of 5×10^4 CFU/well.

The subject of another assay is Streptococcus pyogenes. Kind of assay: MIC, agar with 5% horse blood, Streptococcus pyogenes. Particulars: agar with 5% defibrinated horse blood, 10^4 CFU/spot, 37° C., 5% carbon dioxide, 48 hours. How it is done: as §1, §3
For another assay, the system named is Haemophilus influenzae. The experiment in a line: MIC, Mueller-Hinton broth, Haemophilus influenzae. The conditions noted are these: Mueller-Hinton broth with hemin and NAD, aerobic, 24 hours, 37° C., 5×10^4 CFU/well. How it is done: as §1, §3
The test system of the next assay is Moraxella catarrhalis. The experiment in a line: MIC, Mueller-Hinton broth, Moraxella catarrhalis. Particulars: Mueller-Hinton broth with hemin and NAD, aerobic, 24 hours, 37° C., 5×10^4 CFU/well. The method, then:
as §1, §3

Among the data in US7022705B2, “Isoxazoline derivatives useful as antimicrobials” (AstraZeneca AB, priority 2001, dated 2006) are MIC values, retold here.

Values after ≈ are worked out from the molar mass of the structure shown.

With `Fc1cc(C2=NOC(Cn3ccnn3)C2)ccc1N1CCNCC1` (racemic) [Example 7, (5RS)-3-(3-Fluoro-4-piperazin-1-ylphenyl)-5-(1,2,3-triazol-1-yl-methyl)-4,5-dihydroisoxazole], the MIC was found to be 8 µg/mL (≈ 24.2 µM) in assay [1]; 16 µg/mL (≈ 48.4 µM) in assay [2]; 1 µg/mL (≈ 3.03 µM) against Streptococcus pneumoniae; 2 µg/mL (≈ 6.05 µM) in the assay on Streptococcus pyogenes; 32 µg/mL (≈ 96.9 µM) against Haemophilus influenzae; 32 µg/mL (≈ 96.9 µM) in the assay on Moraxella catarrhalis.
